Tests used:
[1] = test system: BBN-induced T739 bladder cancer cells (murine bladder transitional cell line BTT739); assay: Tumor growth in T739 mice with transplanted bladder cancer cells (Example 6); format: in vivo, mouse; conditions: tumor-bearing T739 mice; 30 consecutive days of treatment (yeast 0.3 ml oral once per day; TSPA 1.5 mg/kg/day i.v.); sacrificed on 31st day
Description: The mice injected with tumor cells were kept for 5 days and then were divided into 4 experimental groups of ten mice per group and one control group. The four experimental groups were triplicated (i.e., using a total of 120 mice in the experimental groups).
The mice in group CK2 also started receiving saline on the same day as the other four groups. […] The weight of the mice and the weight of the tumor were determined by standard techniques.

[2] = test system: BBN-induced T739 bladder cancer cells (murine bladder transitional cell line BTT739); assay: Survival of T739 mice with transplanted bladder cancer cells (Example 7); format: in vivo; conditions: for Number of live animals remaining in the groups after 30 days of treatment: 30 mice per group
Description: The following example illustrates the benefit of a biological composition of the invention in a mouse model of human bladder cancer based on a murine bladder transitional cell line BTT739. The survival time of mice after tumor injection and treatment was studied.
(§1) The biological composition comprising 10^8 cells per ml of activated and conditioned yeast cells of the strain Saccharomyces cerevisiae Hansen strain AS2.4 was prepared by the methods described in Sections 5.1 and subsections therein.
The tumors were prepared in a similar manner as described in Sections 6.1.
The animals were prepared in a similar manner as described in Section 6.2.
(§2) The mice injected with tumor cells were kept for 5 days and then were divided into 4 experimental groups of ten mice per group and one control group. The four experimental groups were triplicated (i.e., using a total of 120 mice in the experimental groups). In group 2AY, the mice received 0.3 ml of the biological composition once per day. In group 2NY, the mice received 0.3 ml of the untreated yeast cells once per day. In group 2TSPA, the mice were injected intravenously with 1.5 mg of thiotepa (TSPA) per kg body weight per day. In group 2CK1, the mice received 0.3 ml of physiological saline once per day.
The mice received a biological composition, untreated yeast cells, TSPA or saline on the same day as the tumor cells were transplanted. The mice in group CK2 also started receiving saline on the same day as the other four groups. The biological composition, untreated yeast cells or saline were administered orally by a feeding tube and the TSPA by intravenous injection for 30 consecutive days. The mice were observed over 6 months from the day of tumor inoculation and survival was recorded. The weight of the mice and the weight of the tumor were determined by standard techniques.
Each of the 30 mice in each group received 30 consecutive days of either untreated yeast cells, TSPA, saline or a biological composition of the invention.

[3] = test system: bladder cell line BBN; assay: Tumor growth in Wistar rats with transplanted bladder cancer cells (Example 8); format: in vivo, rat; conditions: tumor-bearing Wistar rats; 30 consecutive days of treatment (yeast 0.3 ml oral once per day; VCR 3 mg/kg/day i.v.); sacrificed on 31st day
Description: The four experimental groups were triplicated (i.e., using a total of 120 rats in the experimental groups).
The weight of the rats and the weight of the tumor were determined by standard techniques.

[4] = test system: bladder cell line BBN; assay: Survival of Wistar rats with transplanted bladder cancer cells (Example 9); format: in vivo; conditions: for Number of live animals remaining in the groups after 30 days of treatment: 30 rats per group
Description: The following example illustrates the benefit of a biological composition of the invention in a Wistar rat model of human bladder cancer. The survival time of the rats after tumor injection and treatment was studied.
as §1
The animals were prepared in a similar manner as described in Section 8.1.
as §2, with “rats” for “mice”, “2VCR,” for “2TSPA,”, “3” for “1.5”, “[…] (VCR)” for “thiotepa (TSPA)”
The rats received a biological composition, untreated yeast cells, VCR or saline on the same day as the tumor cells were transplanted. The rats in group 2CK2 also started receiving saline on the same day as the other four groups. The biological composition, untreated yeast cells and saline were administered orally by a feeding tube and the VCR by intravenous injection for 30 consecutive days. The rats were observed over 6 months from the day of tumor inoculation and survival was recorded. The weight of the rats and the weight of the tumor were determined by standard techniques.
Each of the 30 rats in each group received 30 consecutive days of either untreated yeast cells, VCR, saline or a biological composition of the invention.

[5] = 0 month after cessation of treatment
[6] = 1 month after cessation of treatment
[7] = 2 months after cessation of treatment
[8] = 3 months after cessation of treatment
[9] = 4 months after cessation of treatment
[10] = 5 months after cessation of treatment
[11] = 6 months after cessation of treatment
[12] = mice that survived the 6 months observation after 30 days of treatment
[13] = rats that survived the 6 months observation after 30 days of treatment

`S=P(N1CC1)(N1CC1)N1CC1` [TSPA, thiotepa] was tested, and the “mean weight of mice and standard deviation” value [1] was 19.5 ± 2.2 g, the “mean weight of tumor nodules and standard deviation” value [1] was 3.3 ± 2.1 mg and the “Number of live animals remaining in the groups after 30 days of treatment” value (shortened to “Number of live animals remaining”) [2, 5] was 30. The “Number of live animals remaining” value [2, 6] was 24, the “Number of live animals remaining” value [2, 7] was 11 and the “Number of live animals remaining” value [2, 8] was 7. For the same compound, the “Number of live animals remaining” value [2, 9] was 2, the “Number of live animals remaining” value [2, 10] was 0 and the “Number of live animals remaining” value [2, 11] was 0. The “survival outcome during the experiment” value ([2]; 30 days of treatment, observed over 6 months) was “all died during the experiment”, the “mean weight of mice and standard deviation” value [2, 12] was “all animals dead” and the “mean weight of tumor nodules and standard deviation” value [2, 12] was “all animals dead”.
In the case of `CC[C@]1(O)C[C@@H]2CN(CCc3c([nH]c4ccccc34)[C@@](C(=O)OC)(c3cc4c(cc3OC)N(C)[C@H]3[C@@](O)(C(=O)OC)[C@H](OC(C)=O)[C@]5(CC)C=CCN6CC[C@]43[C@@H]65)C2)C1` [VCR, vinblastine], the “mean weight of rats and standard deviation” value [3] is reported as 191.3 ± 12.4 g, the “mean weight of tumor nodules and standard deviation” value [3] is reported as 2.65 ± 1.7 g and the “Number of live animals remaining” value [4, 5] is reported as 30. For the same compound, the “Number of live animals remaining” value [4, 6] was 30, the “Number of live animals remaining” value [4, 7] was 30 and the “Number of live animals remaining” value [4, 8] was 30. The “Number of live animals remaining” value [4, 9] was 30, the “Number of live animals remaining” value [4, 10] was 28 and the “Number of live animals remaining” value [4, 11] was 26. For the same compound, the “mean weight of rats and standard deviation” value [4, 13] was “all animals dead” and the “mean weight of tumor nodules and standard deviation” value [4, 13] was “all animals dead”.

Source: US20040253265A1, “Biological compositions and methods for treatment of bladder cancer” (priority 2003, published 2004)
